One compound from patent US20060188909A1, “Business methods for assessing nucleic acids” (Medical College of Ohio, priority 2005, published 2006) can be followed below.

Data set [1] concerns cytochrome p450 IA1 (CYPIAI) gene expression. Kind of data set: MC RT-PCR with Celi competitive templates, CYPIAI induction in BEP2D cells. It counts as cell-based, human. To be noted: 10 μM, exposed vs control cells, about the same cDNA loaded. As to the method: (§1) In a second set of experiments, multiplex competitive reverse transcriptase polymerase chain reaction (MC RT-PCR) with competitive templates were prepared by the Celi method to evaluate the cytochrome p450 (CYP) IAI gene in β-napthoflavone-exposed BEP2D cells. The induction of CYPIAI gene expression was evaluated using both MC RT-PCR with Celi competitive templates, and Northern analysis. Competitive templates were prepared for both the CYPIAI and GAPDH genes. The primers used to prepare the competitive template for GAPDH were: […]
The PCR amplification conditions were the same as described for experiments using the competitive templates prepared for GAPDH and GSHPx by the Higuchi method except the annealing temperature was 55 degrees centigrade and the amplification was carried out for 38 cycles.
Because the native and competitive templates separate without prior restriction endonuclease digestion, samples were taken directly from the PCR reaction tube and applied to ethidium bromide stained 3% Nusieve, 1% LE agarose gels. It was then possible to quantify the products by taking a negative photograph of the gel using Polaroid 665 positive/negative instant film, subjecting the negative photograph to densitometry. […]

Data set [2] shares this test system. Kind of data set: Northern analysis of CYPIAI induction in BEP2D cells. To be noted: 10 μM, varying times, vs 0.1% DMSO control. It counts as cell-based, human. As for the experimental part: as §1
RNA from BEP2D cells incubated for varying times with […] (10 μM) was either electrophoresed on a 1% LE formaldehyde denaturing gel for Northern analysis or MC RT-PCR amplified, as described above. For Northern analysis, following transfer of the RNA to GeneScreen, the filters were hybridized with ^32P-labeled CYPIAI cDNA.
FIG. 36A illustrates Northern analysis of RNA obtained from BEP2D cells that were treated with 0.1% DMSO as a control, or, β-napthoflavone in an effort to induce cytochrome p450 IA1 (CYPIAI). FIG. 36B illustrates DNA PCR-amplified from serial dilutions of cDNA from the same cells used in FIG. 36SA. The cDNA was co-amplified in the presence of competitive templates for GAPDH and CYPIAI, according to some embodiments of the instant invention.

With `O=c1cc(-c2ccccc2)oc2ccc3ccccc3c12` [β-napthoflavone], in data set [1], the “band representing the native CYPIAI gene (MC RT-PCR, GAPDH reference)” value was “much more strongly represented”. In addition, the “gene expression of the CYPIAI gene (Northern analysis)” value in data set [2] is on record as “increase”.
